Results on five compounds are retold here after patent US11717500B2, “Treatment of spondyloarthritis” (PHARMACYL AB, priority 2020, dated 2023).

Experiment [1] deals with LPS-induced TNF-α production in RAW264.7 murine macrophage cells. Kind of experiment: Suppression of LPS-induced TNF-α production in RAW264.7 macrophages (ELISA). In kind it is cell-based. As to conditions: Mus musculus. The source says:
Macrophages serve a critical role in the initiation and propagation of inflammatory responses by releasing proinflammatory mediators, such as TNF-α. Lipopolysaccharide (LPS) is a potent initiator of an inflammatory response. During LPS stimulation, NF-κB signaling is activated to regulate the transcription of numerous genes involved in immunity and inflammation to produce proinflammatory cytokines, such as TNF-α. Suppression of LPS-induced TNF-α production in RAW264.7 macrophages treated with AABZ was investigated by evaluation of the generation of TNF-α.
The RAW264.7 macrophage line was maintained in DMEM supplemented with 5% FBS at 37° C. in a 5% CO2-humidified air environment. The RAW264.7 cells were seeded in 96-well plates at a density of 1×10^5/ml and a volume of 200 μl/well. The cells were incubated for 24 h in medium supplemented with 10% FBS and were then pre-incubated with or without the indicated concentrations of test substances for 2 h prior to the addition of LPS (1 μg/ml). The supernatants were subsequently harvested at various time points and production of the proinflammatory cytokine TNF-α in the culture medium was determined using a commercially available enzyme-linked immunosorbent assay (ELISA) kit according to the manufacturer's protocol.
Effects of some AABZs of the invention at 1 mM on LPS-induced TNF-production in RAW264.7 murine macrophage cells are shown in Table 2.
(An ELISA detects its analyte on a solid surface through an enzyme-linked reagent.)

Another experiment relates to AP-1. The conditions noted are these: T cells; cited from earlier work.
A further experiment concerns IκBβ. As to conditions: cited from earlier work.
In a further experiment the test system is NFAT. The conditions noted are these: T cells; cited from earlier work.
The target of another experiment is dopamine D2 receptor (Homo sapiens (Human), UniProt P14416). Kind of experiment: Dopamine D2 receptor affinity, in vitro radioligand binding with 125I-spiperone. As to conditions: 125I-spiperone as radioactive ligand. The source says:
It is well-known that drug compounds that have an affinity for the striatal dopamine D2 may give rise to adverse side effects, such as short-term extrapyramidal disorders and tardive dyskinesia.

In another experiment the test system is NF-κB. The conditions noted are these: T cells; cited from earlier work.
Setting [2] is: RAW264.7, read-out: % Inhibition of TNF-production.

Molecules are shown by their SMILES. Structures can show the parent of a compound that is named as a salt. Where two headings read alike, the source gives them in different places.

Sequence of dopamine D2 receptor (P14416 whole entry, species assumed): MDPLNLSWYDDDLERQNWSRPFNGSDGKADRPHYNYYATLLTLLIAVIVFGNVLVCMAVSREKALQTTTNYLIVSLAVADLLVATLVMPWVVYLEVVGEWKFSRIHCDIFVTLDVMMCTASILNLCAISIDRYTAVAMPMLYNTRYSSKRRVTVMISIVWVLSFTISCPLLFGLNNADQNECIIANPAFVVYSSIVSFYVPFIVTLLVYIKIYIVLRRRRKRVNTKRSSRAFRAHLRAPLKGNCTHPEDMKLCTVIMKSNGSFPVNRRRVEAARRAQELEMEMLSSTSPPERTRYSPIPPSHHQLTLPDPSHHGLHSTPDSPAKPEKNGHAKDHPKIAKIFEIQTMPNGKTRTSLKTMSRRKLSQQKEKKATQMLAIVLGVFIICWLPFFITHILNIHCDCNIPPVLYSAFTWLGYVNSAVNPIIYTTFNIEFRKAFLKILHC

What is called inhibition is the change of the read-out against control, counted positive when it falls. On to `CCC(=O)Nc1ccc(C(=O)NCCN(CC)CC)cc1Cl` [4-Propanoylamino-3-chloro-N-[2-(diethylamino)ethyl]benzamide hydrochloride], for which, in experiment [1] (setting [2]), the inhibition at 1000 µM came out at 50%.

Turning to `CCN(CC)CCNC(=O)c1ccc(NC(=O)C(C)C)c(Cl)c1` [4-Isobutyrylamino-3-chloro-N-[2-(diethylamino)ethyl]benzamide hydrochloride], the inhibition at 1000 µM in experiment [1] (setting [2]) was 63%.

In the case of `CCN(CC)CCNC(=O)c1ccc(NC(C)=O)cc1` [4-Acetamido-N-[2-(diethylamino)ethyl]benzamide hydrochloride], the inhibition at 1000 µM in experiment [1] (1 mM, LPS 1 μg/ml, RAW264.7 murine macrophage cells, read-out: % Inhibition of TNF-production) amounted to 56%.

In general, IC50 refers to the concentration that gives 50% inhibition. For the compound `CCN(CC)CCNC(=O)c1ccc(NC(C)=O)c(Cl)c1` [Cpd A, 4-Acetamido-3-chloro-N-[2-(diethylamino)ethyl]benzamide hydrochloride], in the experiment on AP-1, the “effect on AP-1 activity” value is “induce AP-1 activity”. Further, in the experiment on IκBβ, the “effect on breakdown of IκBβ” value is on record as “inhibit breakdown”. Also, the inhibition at 1000 µM in experiment [1] (setting [2]) came out at 45%. Further, the “effect on NFAT activity” value with NFAT was “inhibit activities”. At dopamine D2 receptor, the 50% inhibitory concentration (IC50) turned out to be 975 µM. The “effect on NF-κB activity” value in the experiment with NF-κB is on record as “inhibit activities”.

Consider `CCN(CC)CCNC(=O)c1ccc(N)c(Cl)c1` [Declopramide, declopramide], for which the 50% inhibitory concentration (IC50) at dopamine D2 receptor amounted to 38.6 µM.
